Experimental data published in US10004718B2, “Erythropoietin expression promoter” (TOHOKU UNIVERSITY, priority 2012, dated 2018).

Key:
[1] = system: mouse erythropoietin gene promoter; test: Luciferase reporter assay of erythropoietin gene promoter in Hep3B cells; assay type: cell-based; conditions: for effect on erythropoietin gene promoter transcriptional activity compared with HIF activator FG-4592: compound 10 μM vs FG-4592 10 μM, 20% O2; for transcription level of the erythropoietin gene promoter: compound 10 μM, 20% O2, 48 hours, vs 20% O2/DMSO
Experimental: A plasmid vector HE-mPro-luc for luciferase assay on the promoter activity of the 5′ upstream transcriptional regulatory region of the mouse erythropoietin gene was prepared by cleaving, with restriction enzymes XbaI and SacI, a region having a length from −571 to +53 bp starting at the translation initiation site of exon 1 of the mouse erythropoietin gene, and inserting this region to a luciferase reporter vector pXP2 (Nordeen S K. BioTechniques. 6: […], 1988).
The Hep3B cells were adjusted to 10×10^4 cells/well in a 24-well cell culture plate and subcultured. Under microscopy, the Hep3B cells that reached a cell density of 70 to 80% were transfected with the plasmid DNA for luciferase reporter assay. The composition of a solution for transfection was prepared by mixing 2 μg of HE-mPro-luc, 50 ng of pRh-TK (manufactured by Promega K.K.), and 2 μl of Lipofectamine 2000 (manufactured by Invitrogen Corp.) with 100 μl of OptiMEM-I (manufactured by Life Technologies, Inc./GIBCO) per well, followed by incubation at room temperature for 20 minutes. The solution was added to the Hep3B cells in the 24-well cell culture plate preincubated in 0.5 ml of serum-free OptiMEM-I medium, and then incubated for 4 hours without serum and antibiotics under conditions of 37° C. and 5% CO2/20% O2. Then, the medium was replaced with RPMI1640 common medium 1 supplemented with each of 5 types of compounds (compounds #2, 4, 5, 18, and 21) at a concentration of 10 μM, followed by further incubation for 48 hours under conditions of 37° C. and 5% CO2/20% O2. Then, the medium was replaced with 0.5 ml of serum-free PBS, and the cells were gently washed, followed by the removal of PBS by suction. This operation was carried out twice. Then, 100 μl of passive lysis buffer (manufactured by Promega K.K.) was added thereto, and the cells were lysed by mixing at room temperature for 20 minutes. Hep3B cells cultured in the absence of the compound (DMSO added [1%]) (“20% O2/DMSO” of FIG. 3) were used as a negative control. Hep3B cells cultured in the presence of an HIF activator (FG-4592 [10 μM]) (“20% O2/FG4592” of FIG. 3) and Hep3B cells cultured under hypoxia (1% O2) conditions and in the absence of the compound (DMSO added [1%]) (“1% O2/DMSO” of FIG. 3) were used as positive controls.
Dual Luciferase Reporter Assay System (manufactured by Promega K.K.) was used in the luciferase reporter assay. The amounts of firefly and Renilla luciferases were measured using a luminometer Lumat LB9507 (manufactured by BERTHOLD TECHNOLOGIES GmbH & Co. KG). The amount of Fire fly luciferase was divided by the amount of Renilla luciferase to calculate the transcriptional activity of the erythropoietin gene.

[2] = system: mRNA expression of the erythropoietin gene; test: Quantitative PCR of erythropoietin mRNA in Hep3B cells; assay type: cell-based, human; conditions: compound 10 μM, 20% O2, GAPDH internal standard
Experimental: Of the 5 types of compounds confirmed in Example 4 to be effective for promoting the transcriptional activity of the erythropoietin gene promoter, 4 types of compounds (compounds #2, 4, 5, and 21) were selected. From Hep3B cells cultured in RPMI1640 common medium 1 supplemented with each of these 4 types of compounds at a concentration of 10 μM, total RNA was extracted using TriPure Isolation Reagent (manufactured by F. Hoffmann La Roche AG) in a 6-well cell culture plate. Hep3B cells cultured in the absence of the compound (DMSO added) (“20% O2/DMSO” of FIG. 4) were used as a negative control. Hep3B cells cultured in the presence of a GATA-specific inhibitor (K7174 [10 μM]) (“20% O2/K7174” of FIG. 4) and Hep3B cells cultured under hypoxia (1% O2) conditions and in the absence of the compound (DMSO added [1%]) (“1% O2/DMSO” of FIG. 4) were used as positive controls.
The extracted RNA was used as a template to synthesize cDNA using SuperScript III RTS First-strand kit (manufactured by Invitrogen Corp.). Then, the expression of the erythropoietin mRNA was measured by quantitative PCR with GAPDH as an internal standard. The quantitative PCR was carried out using TaqMan® Gene Expression Assays (using GAPDH; Assay ID: Rn99999916_s1, and human erythropoietin; Assay ID: Hs00171267_ml TaqMan® probes [manufactured by Applied Biosystems Inc.]) and Step One Plus Real-Time PCR System (manufactured by Applied Biosystems Inc.).

[3] = system: HIF-α; test: HIF-α concentration in Hep3B cells (Total HIF-1α Cell-Based ELISA); design: species or system human; conditions: compound 10 μM, 20% O2, 24 hours
Experimental: The Hep3B cells were seeded at 1×10^4 cells/well to a 24-well cell culture plate and then cultured under normal oxygen (20% O2) for 24 hours. Each of 3 types of compounds (compounds #4, 21, and 35) was mixed at a concentration of 10 μM into RPMI1640 common medium 1. After further culture under normal oxygen (20% O2) for 24 hours, the concentration of HIF-α produced in the medium was measured using Total HIF-1 α Cell-Based ELISA Kit (manufactured by R&D Systems, Inc.). Hep3B cells cultured in the absence of the compound (DMSO added [1%]) (“Control” of FIG. 5) were used as a negative control. Hep3B cells cultured in the presence of HIF activators (FG-4592 [10 μM], DMOG [10 μM], and ciclopirox[10 μM]) (“FG”, “DMOG”, and “Ciclo”, respectively, of FIG. 5) were used as positive controls.

Compound	effect on erythropoietin gene promoter transcriptional activity compared with HIF activator FG-4592 [1]	transcription level of the erythropoietin gene promoter [1]	mRNA expression level of the erythropoietin gene [2]	HIF-α concentration in the Hep3B cells [3]
O=C(CC(C(=O)O)c1c[nH]c2ccccc12)c1ccc(F)cc1 (centres unmarked) [compound #4, 4-(4-Fluorophenyl)-2-(1H-indol-3-yl)-4-oxo-butanoic acid]	superior to the effect of the existing HIF activator (FG-4592)	increase the transcription level	increase the mRNA expression level	increase the HIF-α concentration
O=C(O)C(CCCC(F)(F)C(F)(F)F)c1c[nH]c2ccccc12 (stereo not drawn) [compound #21, α-(4,4,5,5,5-Pentafluoro-1-pentyl)-3-indoleacetic acid]	superior to the effect of the existing HIF activator (FG-4592)	increase the transcription level	increase the mRNA expression level	increase the HIF-α concentration
O=C(CC(C(=O)O)c1c[nH]c2ccccc12)c1ccc(F)cc1F (centres unmarked) [compound #5, 4-(2,4-Difluorophenyl)-2-(1H-indol-3-yl)-4-oxo-butanoic acid]	superior to the effect of the existing HIF activator (FG-4592)	increase the transcription level	increase the mRNA expression level	–
